In PMC10620772, “Design, synthesis, and biological evaluation of new pyrimidine-5-carbonitrile derivatives as novel anti-cancer, dual EGFR^WT/COX-2 inhibitors with docking studies” (RSC Advances, 2023):
Several values for one entry are separate records, joined by “and”; a condition that tells them apart may be missing. Identical values can stand only once. Entries after “also recorded” stand apart in the source; their conditions may differ. Like-named read-outs stand apart in the source and are kept apart here.

Key:
Type in all cases: cell-based, human
SK-OV-3 = experiment: NCI60 antitumor screening
SR = experiment: NCI60 antitumor screening
SF-268 = experiment: NCI60 antitumor screening
melanoma subpanel = experiment: NCI60 five-dose, subpanel V
Source text: (§1) (2) The molar concentration of the compound responsible for total growth inhibition, also known as total growth inhibition (TGI).
(§2) Regarding subpanel selectivity toward certain cancer type, the method of determining a compound's selectivity index is to divide the full panel MG-MID (μM) value by each single subpanel. Values above six indicate high selectivity against the subpanel; moderate selectivity is denoted by values between three and six. Conversely, compounds are termed nonselective if their selectivity is less than three.[30,37]

A498 = experiment: NCI60 antitumor screening
prostate cancer subpanel = experiment: NCI60 five-dose, subpanel VIII
Source text: as §1, §2

HL-60(TB) = experiment: NCI60 antitumor screening
MCF7 = experiment: NCI60 antitumor screening
breast cancer subpanel = experiment: NCI60 five-dose, subpanel IX
Source text: as §1, §2

SNB-19 = experiment: NCI60 antitumor screening
CAKI-1 = experiment: NCI60 antitumor screening
SK-MEL-28 = experiment: NCI60 antitumor screening
SF-539 = experiment: NCI60 antitumor screening
COLO 205 = experiment: NCI60 antitumor screening
Leukemia subpanel = experiment: NCI60 five-dose, subpanel I
Source text: as §1, §2

UACC-257 = experiment: NCI60 antitumor screening
colon cancer subpanel = experiment: NCI60 five-dose, subpanel III
Source text: as §1, §2

LOX IMVI = experiment: NCI60 antitumor screening
NCI/ADR-RES = experiment: NCI60 antitumor screening
NCI60 cell lines panel = experiment: NCI60 antitumor screening, full panel
Method in brief: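 Percent growth inhibition (GI%) was recorded for each of the NCI60 lines, spanning leukaemia, lung, colon, CNS, melanoma, ovarian, renal, prostate and breast cancers, after exposure to compounds at one concentration, 10 μM.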

OVCAR-8 = experiment: NCI60 antitumor screening
MDA-MB-231/ATCC = experiment: NCI60 antitumor screening; conditions: Homo sapiens; 10 μM single dose; MDA-MB-231/ATCC (breast cancer); read-out: growth inhibition percent (GI%)
SK-MEL-5 = experiment: NCI60 antitumor screening
RXF 393 = experiment: NCI60 antitumor screening
ACHN = experiment: NCI60 antitumor screening
TK-10 = experiment: NCI60 antitumor screening
NCI-H322M = experiment: NCI60 antitumor screening
[1] = full panel MG-MID / subpanel VIII
[2] = full panel MG-MID / subpanel IX
[3] = Homo sapiens, SF-539, five-dose
[4] = full panel MG-MID / subpanel III
[5] = Homo sapiens, NCI-H322M, five-dose

N#Cc1c(-c2ccc(F)cc2)nc(SCc2ccccc2)nc1N1CCNCC1 [4e, 2-(Benzylthio)-4-(4-fluorophenyl)-6-(piperazin-1-yl) pyrimidine-5-carbonitrile]
GI50 (SK-OV-3; Homo sapiens, SK-OV-3, five-dose): 16 µM
CC50 (SK-OV-3; Homo sapiens, SK-OV-3, five-dose, read-out: LC50 (the source's name)): 54.6 µM
inhibition at 10 µM (SK-OV-3; Homo sapiens, 10 μM single dose, SK-OV-3 (ovarian cancer), read-out: growth inhibition percent (GI%)): > 100%
TGI (SK-OV-3; five-dose): 29.50 µM
GI50 (SR; Homo sapiens, SR, five-dose): 1.92 µM
CC50 (SR; Homo sapiens, SR, five-dose, read-out: LC50 (the source's name)): 13.8 µM
inhibition at 10 µM (SR; Homo sapiens, 10 μM single dose, SR (leukaemia), read-out: growth inhibition percent (GI%)): > 100%
TGI (SR; five-dose): 4.61 µM
GI50 (SF-268; Homo sapiens, SF-268, five-dose): 12.9 µM
CC50 (SF-268; Homo sapiens, SF-268, five-dose, read-out: LC50 (the source's name)): 65.4 µM
inhibition at 10 µM (SF-268; Homo sapiens, 10 μM single dose, SF-268 (CNS cancer), read-out: growth inhibition percent (GI%)): > 100%
TGI (SF-268; five-dose): 29.10 µM
GI50 (melanoma subpanel; Homo sapiens, subpanel V, read-out: MG-MID (GI50)): 13 µM
Selectivity index (GI50) (melanoma subpanel; full panel MG-MID / subpanel V): 0.82
Selectivity index (TGI) (melanoma subpanel; full panel MG-MID / subpanel V): 0.93
MG-MID (TGI) (melanoma subpanel; subpanel V): 25.21 µM
GI50 (A498; Homo sapiens, A498, five-dose): 13.1 µM
LC50 (A498; Homo sapiens, A498, five-dose): 56.9 µM
inhibition at 10 µM (A498; Homo sapiens, 10 μM single dose, A498 (renal cancer), read-out: growth inhibition percent (GI%)): > 100%
TGI (A498; five-dose): 27.30 µM
GI50 (prostate cancer subpanel; Homo sapiens, subpanel VIII, read-out: MG-MID (GI50)): 13.4 µM
Selectivity index (GI50) (prostate cancer subpanel; [1]): 0.79
Selectivity index (TGI) (prostate cancer subpanel; [1]): 0.86
MG-MID (TGI) (prostate cancer subpanel; subpanel VIII): 27.40 µM
GI50 (HL-60(TB); Homo sapiens, HL-60, five-dose): 4.5 µM
CC50 (HL-60(TB); Homo sapiens, HL-60, five-dose, read-out: LC50 (the source's name)): 46.5 µM
inhibition at 10 µM (HL-60(TB); Homo sapiens, 10 μM single dose, HL-60(TB) (leukaemia), read-out: growth inhibition percent (GI%)): > 100%
TGI (HL-60(TB); five-dose): 17.30 µM
GI50 (MCF7; Homo sapiens, MCF7, five-dose): 3.94 µM
CC50 (MCF7; Homo sapiens, MCF7, five-dose, read-out: LC50 (the source's name)): 44.8 µM
inhibition at 10 µM (MCF7; Homo sapiens, 10 μM single dose, MCF7 (breast cancer), read-out: growth inhibition percent (GI%)): > 100%
TGI (MCF7; five-dose): 15.30 µM
GI50 (breast cancer subpanel; Homo sapiens, subpanel IX, read-out: MG-MID (GI50)): 9.57 µM
Selectivity index (GI50) (breast cancer subpanel; [2]): 1.11
Selectivity index (TGI) (breast cancer subpanel; [2]): 0.98
MG-MID (TGI) (breast cancer subpanel; subpanel IX): 23.96 µM
GI50 (SNB-19; Homo sapiens, SNB-19, five-dose): 14.2 µM
CC50 (SNB-19; Homo sapiens, SNB-19, five-dose, read-out: LC50 (the source's name)): 60.6 µM
inhibition at 10 µM (SNB-19; Homo sapiens, 10 μM single dose, SNB-19 (CNS cancer), read-out: growth inhibition percent (GI%)): > 100%
TGI (SNB-19; five-dose): 29.30 µM
GI50 (CAKI-1; Homo sapiens, CAKI-1, five-dose): 16 µM
CC50 (CAKI-1; Homo sapiens, CAKI-1, five-dose, read-out: LC50 (the source's name)): 55.1 µM
inhibition at 10 µM (CAKI-1; Homo sapiens, 10 μM single dose, CAKI-1 (renal cancer), read-out: growth inhibition percent (GI%)): > 100%
TGI (CAKI-1; five-dose): 29.70 µM
GI50 (SK-MEL-28; Homo sapiens, SK-MEL-28, five-dose): 16.3 µM
CC50 (SK-MEL-28; Homo sapiens, SK-MEL-28, five-dose, read-out: LC50 (the source's name)): 56.3 µM
inhibition at 10 µM (SK-MEL-28; Homo sapiens, 10 μM single dose, SK-MEL-28 (melanoma), read-out: growth inhibition percent (GI%)): > 100%
TGI (SK-MEL-28; five-dose): 30.30 µM
GI50 (SF-539; [3]): 15.7 µM
LC50 (SF-539; [3]): 54.9 µM
inhibition at 10 µM (SF-539; Homo sapiens, 10 μM single dose, SF-539 (CNS cancer), read-out: growth inhibition percent (GI%)): > 100%
TGI (SF-539; five-dose): 29.40 µM
IC50 (COLO 205; Homo sapiens, COLO 205): 1.66 µM
GI50 (COLO 205; Homo sapiens, COLO 205, five-dose): 1.66 µM
CC50 (COLO 205; Homo sapiens, COLO 205, five-dose, read-out: LC50 (the source's name)): 6.04 µM
inhibition at 10 µM (COLO 205; Homo sapiens, 10 μM single dose, COLO 205 (colon cancer), read-out: growth inhibition percent (GI%)): > 100%
TGI (COLO 205; five-dose): 3.17 µM
GI50 (Leukemia subpanel; Homo sapiens, subpanel I, read-out: MG-MID (GI50)): 5.59 µM
Selectivity index (GI50) (Leukemia subpanel; full panel MG-MID / subpanel I): 1.90
MG-MID (TGI) (Leukemia subpanel; subpanel I): 16.17 µM
GI50 (UACC-257; Homo sapiens, UACC-257, five-dose): 13.1 µM
CC50 (UACC-257; Homo sapiens, UACC-257, five-dose, read-out: LC50 (the source's name)): 52.6 µM
inhibition at 10 µM (UACC-257; Homo sapiens, 10 μM single dose, UACC-257 (melanoma), read-out: growth inhibition percent (GI%)): > 100%
TGI (UACC-257; five-dose): 26.20 µM
GI50 (colon cancer subpanel; Homo sapiens, subpanel III, read-out: MG-MID (GI50)): 5.1 µM
Selectivity index (GI50) (colon cancer subpanel; [4]): 2.09
Selectivity index (TGI) (colon cancer subpanel; [4]): 1.79
MG-MID (TGI) (colon cancer subpanel; subpanel III): 13.12 µM
GI50 (LOX IMVI; Homo sapiens, LOX IMVI, five-dose): 1.71 µM
CC50 (LOX IMVI; Homo sapiens, LOX IMVI, five-dose, read-out: LC50 (the source's name)): 6.48 µM
inhibition at 10 µM (LOX IMVI; Homo sapiens, 10 μM single dose, LOX IMVI (melanoma), read-out: growth inhibition percent (GI%)): > 100%
TGI (LOX IMVI; five-dose): 3.33 µM
GI50 (NCI/ADR-RES; Homo sapiens, NCI/ADR-RES, five-dose): 11.7 µM
CC50 (NCI/ADR-RES; Homo sapiens, NCI/ADR-RES, five-dose, read-out: LC50 (the source's name)): 64.4 µM
inhibition at 10 µM (NCI/ADR-RES; Homo sapiens, 10 μM single dose, NCI/ADR-RES (ovarian cancer), read-out: growth inhibition percent (GI%)): > 100%
TGI (NCI/ADR-RES; five-dose): 27.40 µM
One-dose activity over the NCI60 panel (NCI60 cell lines panel; 10 μM): lethal effect to all cancer subpanels; also recorded: Lethal to all NCI60 cell lines
inhibition at 10 µM (NCI60 cell lines panel; Homo sapiens, 10 μM single dose, mean over NCI60 cell lines, read-out: Mean growth inhibition percent (GI%)): > 100%
GI50 (NCI60 cell lines panel; Homo sapiens, average of all cell lines, read-out: Full panel MG-MID (GI50)): 10.7 µM
GI50 (NCI60 cell lines panel; Homo sapiens, five-dose, read-out: GI50 range, leukemia and colon cancer cell lines): 1.77 to 17.1 µM
CC50 (NCI60 cell lines panel; Homo sapiens, five-dose, read-out: LC50 range over examined cell lines): 5 to 69 µM
Full panel MG-MID (TGI) (NCI60 cell lines panel; average of all cell lines): 23.60 μM and 23.60 ^e μM
GI50 (OVCAR-8; Homo sapiens, OVCAR-8, five-dose): 6.21 µM
CC50 (OVCAR-8; Homo sapiens, OVCAR-8, five-dose, read-out: LC50 (the source's name)): 59.1 µM
inhibition at 10 µM (OVCAR-8; Homo sapiens, 10 μM single dose, OVCAR-8 (ovarian cancer), read-out: growth inhibition percent (GI%)): > 100%
TGI (OVCAR-8; five-dose): 21.80 µM
inhibition at 10 µM (MDA-MB-231/ATCC): > 100%
GI50 (SK-MEL-5; Homo sapiens, SK-MEL-5, five-dose): 15.7 µM
CC50 (SK-MEL-5; Homo sapiens, SK-MEL-5, five-dose, read-out: LC50 (the source's name)): 54.5 µM
inhibition at 10 µM (SK-MEL-5; Homo sapiens, 10 μM single dose, SK-MEL-5 (melanoma), read-out: growth inhibition percent (GI%)): > 100%
TGI (SK-MEL-5; five-dose): 29.20 µM
GI50 (RXF 393; Homo sapiens, RXF 393, five-dose): 3.14 µM
CC50 (RXF 393; Homo sapiens, RXF 393, five-dose, read-out: LC50 (the source's name)): 44.2 µM
inhibition at 10 µM (RXF 393; Homo sapiens, 10 μM single dose, RXF 393 (renal cancer), read-out: growth inhibition percent (GI%)): > 100%
TGI (RXF 393; five-dose): 14.80 µM
GI50 (ACHN; Homo sapiens, ACHN, five-dose): 14 µM
LC50 (ACHN; Homo sapiens, ACHN, five-dose): 54 µM
inhibition at 10 µM (ACHN; Homo sapiens, 10 μM single dose, ACHN (renal cancer), read-out: growth inhibition percent (GI%)): > 100%
TGI (ACHN; five-dose): 27.50 µM
GI50 (TK-10; Homo sapiens, TK-10, five-dose): 14.5 µM
LC50 (TK-10; Homo sapiens, TK-10, five-dose): 55.5 µM
inhibition at 10 µM (TK-10; Homo sapiens, 10 μM single dose, TK-10 (renal cancer), read-out: growth inhibition percent (GI%)): > 100%
TGI (TK-10; five-dose): 28.40 µM
GI50 (NCI-H322M; [5]): 14.3 µM
LC50 (50% lethal concentration) (NCI-H322M; [5]): 54.2 µM
inhibition at 10 µM (NCI-H322M; Homo sapiens, 10 μM single dose, NCI-H322M (non-small cell lung cancer), read-out: growth inhibition percent (GI%)): > 100%
TGI (NCI-H322M; five-dose): 27.90 µM
